The data set in a line: Diffusion of isoflavones from films into an agar plate (gelose) matrix simulating the vaginal mucous membrane. The class given is physicochemical. The text has this: FIG. 1 is a flowchart pertaining to the protocol for evaluating the diffusion of isoflavones made out of films according to the invention towards a matrix simulating the vaginal mucous membrane;
The films according to the present invention meeting the formulations 1 to 6 described here above were associated with an extract obtained from soybeans. The extract is incorporated directly into the mixture so that its content is 4.2% by mass. This extract has the particular feature of being rich in isoflavones and especially having high daidzin and genistin content.
The tests explained here below show the possible use of films according to the invention for making products for administering active ingredients by diffusion of these ingredients from the film towards the vaginal mucous membrane.
In these tests, in order to model the vaginal mucous membrane, an agar plate with an Agar concentration of 30 g/l was used.
The diffusion of daidzin and genistin in the lower agar plate and the upper agar plate was studied with films complying with the formulations 1, 2 and 3 described here above. The results of this study are indicated in the two graphs of FIG. 2.
The influence of the proportion by weight of film-forming agent (sodium caseinate (NaCAS)) in films according to the invention meeting the formulations 5, 2 and 4 described here above on the diffusion of daidzin (a) and genistin (b) has also been studied. The results of this study are indicated in the two graphs shown in FIG. 3 in which the concentration in isoflavones diffused has been related in terms of percentage to the case where the entire active ingredient would have been diffused.
The hydrophobic agent chosen for this study is soy lecithin. A suspension of this compound was also prepared using 5 g of soy lecithin powder mixed with 10 mL of ultra-pure water. The films complying with the formulations 1 and 2 were then coated with this suspension (on the upper and lower faces) and then placed on gelose in order to carry out migration tests.
Two rates of plasticization were examined, corresponding to the formulations 4 and 5 of the films according to the invention described here above.

Data on one substance can be found in patent US9345669B2, “Biodegradable natural films based on co-products derived from industrial-scale seed-treatment processes” (Sojasun Technologies, priority 2011, dated 2016).

For the substance Daidzin, the “concentration in gelose under equilibrium” value (films of formulations 1, 2 and 3 with 4.2% soybean extract, agar 30 g/l (FIG. 2)) is “about 10 μg/mL”. Moreover, for the setting “films of formulations 5, 2 and 4 (varied proportion of sodium caseinate), % of total active ingredient (FIG. 3)”, the “isoflavone diffused towards the gelose after 24 hours of contact” value is recorded as “more than 90%”. Besides, the “isoflavone diffused in the gelose after 48 hours of contact, with soy lecithin coating” value (formulations 1 and 2 coated with soy lecithin on upper and lower faces (FIG. 4)) was 40%. For the same substance, where the note is “plasticization rate 20% glycerol (FIG. 5)”, the “isoflavone diffused after 30 hours, plasticization rate 20%” value is recorded as 90%. The “isoflavone diffused after 30 hours, glycerol rate 30% by mass” value (plasticization rate 30% glycerol (FIG. 5)) was approximately 100%.
